The source of these data is patent US20250019373A1, “ARYL OR HETEROARYL DERIVATIVE, AND PHARMACEUTICAL COMPOSITION COMPRISING SAME AS ACTIVE INGREDIENT FOR PREVENTION OR TREATMENT OF KINASE-RELATED DISEASES” (VORONOI INC., priority 2021, published 2025).

Broadly, the EC50 is the concentration that produces a half-maximal response.

The test system of the assay is HT-29 cells. In words: Cell necrosis inhibitory activity under necroptosis-inducing conditions (TNF-α, Z-VAD-FMK, LCL161) in HT-29 cells, Cell Titer-Glo. Particulars: Homo sapiens, 100 ng/mL TNF-α + 25 μM Z-VAD-FMK + Smac mimetic LCL161, 24 hours, cell viability. The format is cell-based. The procedure: To evaluate the cell necrosis inhibitory activity of the compound according to the present invention, an experiment was conducted as follows.
To evaluate the efficacy of inhibiting cell necrosis under TNF-α-mediated cell death-inducing conditions, a HT-29 cell line (Korean Cell Line Bank Accession No. #30038) was cultured in RPMI-1640 (HyClone #SH3027.01) medium containing 10% fetal bovine serum (FBS) and 1% penicillin/streptomycin to analyze cell viability. More specifically, for testing, the cell line was seeded in a 96-well flat bottom plate (Corning #3903) at a concentration of 10,000 cells/well and incubated at 37° C. under a 5% CO2 condition for 24 hours. Each well was treated with 100 ng/mL TNF-α, 25 μM pan-caspase inhibitor (Z-VAD-FMK, Selleckchem #S8102), and 10 µM Smac mimetic LCL161 (Selleckchem #S7009) and allowed to react for 10 minutes. The compounds of Examples were treated at 11 concentrations (the highest concentration being 0.1 μM or 1 μM) with a 3-fold concentration gradient, and as a control, dimethyl sulfoxide (DMSO) was treated at a concentration of 0.05% (v/v), which is the same as those when the compounds were treated. The treated cells were incubated for 24 hours. To confirm the degree of cell viability, 100 μL of Cell Titer-Glo (Promega #G7573) was added to the medium of the cultured cells and cultured for additional 10 minutes, and then luminescence was measured using a microplate reader. Based on the […] of control cells that were not treated with the compound, the degree of cell necrosis inhibitory activity was calculated according to the treatment concentration of each compound. Here, the concentration at which the cell necrosis inhibitory activity was 50% was determined as an EC50 (nM) value and calculated using Prism (ver. 8.4.3 #GraphPad) software.
(In general: ATP-based viability assays read luminescence as a measure of living cells.)
`Cc1ccc(-c2ccc3ncc(C#N)n3n2)cc1NC(=O)N1OCC[C@H]1c1ccccc1` [Example 118, (S)-N-(5-(3-cyanoimidazo[1,2-b]pyridazin-6-yl)-2-methylphenyl)-3-phenylisoxazolidine-2-carboxamide]: the EC50 came to 4.3 nM.

For `Nc1nc2ccc(-c3ccc(F)c(NC(=O)N4OCC[C@H]4c4ccccc4)c3)cn2n1` [Example 96, (S)-N-(5-(2-amino-[1,2,4]triazolo[1,5-a]pyridin-6-yl)-2-fluorophenyl)-3-phenylisoxazolidine-2-carboxamide], the half-maximal effective concentration (EC50) was determined as 1.9 nM.

As to `Cc1ccc(-c2ccc3nnc(C(F)(F)F)n3n2)cc1NC(=O)N1OCC[C@H]1c1ccccc1` [Example 108, (S)-N-(2-methyl-5-(3-(trifluoromethyl)-[1,2,4]triazolo[4,3-b]pyridazin-6-yl)phenyl)-3-phenylisoxazolidine-2-carboxamide], the EC50 was found to be 29.8 nM.

As for `Cc1ccc(-c2ccc3ncnn3c2)cc1NC(=O)N1OCC[C@H]1c1ccccc1` [Example 101, (S)-N-(5-([1,2,4]triazolo[1,5-a]pyridin-6-yl)-2-methylphenyl)-3-phenylisoxazolidine-2-carboxamide], the EC50 was determined as 6.2 nM.

In the case of `Cc1ccc(-c2ccc3nc(N)sc3n2)cc1NC(=O)N1OCC[C@H]1c1ccccc1` [Example 98, (S)-N-(5-(2-aminothiazolo[5,4-b]pyridin-5-yl)-2-methylphenyl)-3-phenylisoxazolidine-2-carboxamide], the concentration giving a half-maximal response (EC50) was 0.3 nM.

As to `Cc1ccc(-c2ccc3nccn3c2)cc1NC(=O)N1OCC[C@H]1c1ccccc1` [Example 113, (S)-N-(5-(imidazo[1,2-a]pyridin-6-yl)-2-methylphenyl)-3-phenylisoxazolidine-2-carboxamide], the EC50 turned out to be 2.4 nM.

As to `Cc1ccc(-c2ccc3nccn3n2)cc1NC(=O)N1OCC[C@H]1c1ccccc1` [Example 112, (S)-N-(5-(imidazo[1,2-b]pyridazin-6-yl)-2-methylphenyl)-3-phenylisoxazolidine-2-carboxamide], the 50% effective concentration (EC50) turned out to be 3.3 nM.

`Cc1ccc(-c2ccn3nc(N)cc3c2)cc1NC(=O)N1OCC2(CC2)[C@H]1c1ccccc1` [Example 140, (R)-N-(5-(2-aminopyrazolo[1,5-a]pyridin-5-yl)-2-methylphenyl)-7-phenyl-5-oxa-6-azaspiro[2.4]heptane-6-carboxamide]: the EC50 is 1.7 nM.

Consider `O=C(Nc1nc2ccc(-c3cccc(NC(=O)N4OCC[C@H]4c4ccccc4)c3)cc2s1)C1CC1` [Example 25, (S)-N-(3-(2-(cyclopropanecarboxamido)benzo[d]thiazol-6-yl)phenyl)-3-phenylisoxazolidine-2-carboxamide], for which the EC50 worked out at 0.2 nM.

Take `Cc1ccc(-c2ccc3ncc(C#N)n3c2)cc1NC(=O)N1OCC[C@H]1c1ccccc1` [Example 114, (S)-N-(5-(3-cyanoimidazo[1,2-a]pyridin-6-yl)-2-methylphenyl)-3-phenylisoxazolidine-2-carboxamide]: the EC50 was determined as 1.9 nM.

As to `COc1ncc(-c2ccn3nc(N)nc3c2)cc1NC(=O)N1OCC[C@H]1c1ccccc1` [Example 47, (S)-N-(5-(2-amino-[1,2,4]triazolo[1,5-a]pyridin-7-yl)-2-methoxypyridin-3-yl)-3-phenylisoxazolidine-2-carboxamide], the concentration giving a half-maximal response (EC50) worked out at 0.5 nM.

Take `Nc1nc2ccc(-c3ccc(F)c(NC(=O)N4OCC[C@H]4c4ccccc4)c3F)cc2s1` [Example 132, (S)-N-(3-(2-aminobenzo[d]thiazol-6-yl)-2,6-difluorophenyl)-3-phenylisoxazolidine-2-carboxamide]: the half-maximal effective concentration (EC50) was 8.1 nM.

Take `C#Cc1cnc2ccc(-c3ccc(C)c(NC(=O)N4OCC[C@H]4c4ccccc4)c3)cn12` [Example 116, (S)-N-(5-(3-ethynylimidazo[1,2-a]pyridin-6-yl)-2-methylphenyl)-3-phenylisoxazolidine-2-carboxamide]: the concentration for a half-maximal effect (EC50) was 1 nM.

Take `Cc1ccc(-c2ccc3nc(N)nn3c2)cc1NC(=O)N1OCC[C@H]1c1cc(F)cc(F)c1` [Example 59, (S)-N-(5-(2-amino-[1,2,4]triazolo[1,5-a]pyridin-6-yl)-2-methylphenyl)-3-(3,5-difluorophenyl)isoxazolidine-2-carboxamide]: the EC50 was 0.7 nM.

Turning to `COc1ncc(-c2ccc3nc(N)nn3c2)cc1NC(=O)N1OCC[C@H]1c1cc(F)cc(F)c1` [Example 57, (S)-N-(5-(2-amino-[1,2,4]triazolo[1,5-a]pyridin-6-yl)-2-methoxypyridin-3-yl)-3-(3,5-difluorophenyl)isoxazolidine-2-carboxamide], the half-maximal effective concentration (EC50) was determined as 4.4 nM.

Regarding `Nc1nc2cc(-c3ccc(Cl)c(NC(=O)N4OCC[C@H]4c4ccccc4)c3)ccn2n1` [Example 124, (S)-N-(5-(2-amino-[1,2,4]triazolo[1,5-a]pyridin-7-yl)-2-chlorophenyl)-3-phenylisoxazolidine-2-carboxamide], the concentration for a half-maximal effect (EC50) came out at 0.2 nM.

In the case of `Cc1ncc(-c2ccn3nc(NC(=O)C4CC4)nc3c2)cc1NC(=O)N1OCC[C@H]1c1ccccc1` [Example 48, (S)-N-(5-(2-(cyclopropanecarboxamido)-[1,2,4]triazolo[1,5-a]pyridin-7-yl)-2-methylpyridin-3-yl)-3-phenylisoxazolidine-2-carboxamide], the EC50 stood at 0.4 nM.

Take `Cc1ccc(-c2ccc3nc(N)nn3c2)cc1NC(=O)N1OCC[C@H]1c1ccccc1` [Example 32, (S)-N-(5-(2-amino-[1,2,4]triazolo[1,5-a]pyridin-6-yl)-2-methylphenyl)-3-phenylisoxazolidine-2-carboxamide]: the concentration giving a half-maximal response (EC50) was 0.6 nM.

Take `Cc1ncc(-c2ccc3nc(N)nn3c2)cc1NC(=O)N1OCC[C@H]1c1cc(F)cc(Cl)c1` [Example 52, (S)-N-(5-(2-amino-[1,2,4]triazolo[1,5-a]pyridin-6-yl)-2-methylpyridin-3-yl)-3-(3-chloro-5-fluorophenyl)isoxazolidine-2-carboxamide]: the half-maximal effective concentration (EC50) came to 2.8 nM.

Turning to `COc1ncc(-c2ccc3nc(N)cn3n2)cc1NC(=O)N1OCC[C@H]1c1ccccc1` [Example 7, (S)-N-(5-(2-aminoimidazo[1,2-b]pyridazin-6-y1)-2-methoxypyridin-3-yl)-3-phenylisoxazolidine-2-carboxamide], the EC50 is 40 nM.

Take `CNC(=O)c1n[nH]c2cc(-c3cccc(NC(=O)N4OCC[C@H]4c4ccccc4)c3)ccc12` [Example 17, (S)-N-(3-(3-(methylcarbamoyl)-1H-indazol-6-yl)phenyl)-3-phenylisoxazolidine-2-carboxamide]: the EC50 was determined as 0.1 nM.

Regarding `Cc1ccc([C@@H]2CCON2C(=O)Nc2cc(-c3ccc4nc(N)nn4c3)cnc2C)cn1` [Example 51, (S)-N-(5-(2-amino-[1,2,4]triazolo[1,5-a]pyridin-6-yl)-2-methylpyridin-3-yl)-3-(6-methylpyridin-3-yl)isoxazolidine-2-carboxamide], the EC50 amounted to 23.3 nM.

With `CNC(=O)c1n[nH]c2cc(-c3ccc(OC)c(NC(=O)N4OCC[C@H]4c4ccccc4)c3)ccc12` [Example 24, (S)-N-(2-methoxy-5-(3-(methylcarbamoyl)-1H-indazol-6-yl)phenyl)-3-phenylisoxazolidine-2-carboxamide], the half-maximal effective concentration (EC50) was 0.4 nM.

In the case of `Cc1ncc(-c2ccc3nc(N)nn3c2)cc1NC(=O)N1OCC[C@H]1c1ccc(Cl)cc1` [Example 69, (S)-N-(5-(2-amino-[1,2,4]triazolo[1,5-a]pyridin-6-yl)-2-methylpyridin-3-yl)-3-(4-chlorophenyl)isoxazolidine-2-carboxamide], the EC50 stood at 0.4 nM.

As to `COc1ccc(-c2ccn3nc(N)nc3c2)c(F)c1NC(=O)N1OCC[C@H]1c1ccccc1` [Example 103, (S)-N-(3-(2-amino-[1,2,4]triazolo[1,5-a]pyridin-7-yl)-2-fluoro-6-methoxyphenyl)-3-phenylisoxazolidine-2-carboxamide], the EC50 worked out at 15.6 nM.

On to `Cc1ccc(-c2ccc3nc(N)oc3c2)cc1NC(=O)N1OCC[C@H]1c1ccccc1` [Example 109, (S)-N-(5-(2-aminobenzo[d]oxazol-6-yl)-2-methylphenyl)-3-phenylisoxazolidine-2-carboxamide], for which the EC50 amounted to 1 nM.

For `Cc1ccc(-c2cc3scnc3cn2)cc1NC(=O)N1OCC[C@H]1c1ccccc1` [Example 130, (S)-N-(2-methyl-5-(thiazolo[4,5-c]pyridin-6-yl)phenyl)-3-phenylisoxazolidine-2-carboxamide], the 50% effective concentration (EC50) stood at 1.4 nM.

With `COc1ncc(-c2ccc3nc(NC(=O)C4CC4)cn3n2)cc1NC(=O)N1OCC[C@H]1c1ccccc1` [Example 4, (S)-N-(5-(2-(cyclopropanecarboxamido)imidazo[1,2-b]pyridazin-6-yl)-2-methoxypyridin-3-yl)-3-phenylisoxazolidine-2-carboxamide], the half-maximal effective concentration (EC50) came out at 0.2 nM.

As for `Cc1ccc(-c2ccn3nc(N)nc3c2)cc1NC(=O)N1OCC[C@H]1c1ccc(F)cc1` [Example 64, (S)-N-(5-(2-amino-[1,2,4]triazolo[1,5-a]pyridin-7-yl)-2-methylphenyl)-3-(4-fluorophenyl)isoxazolidine-2-carboxamide], the concentration giving a half-maximal response (EC50) came out at 0.2 nM.
